Reference: publication PMC6264553, “Synthesis and In Vitro Protein Tyrosine Kinase Inhibitory Activity of Furan-2-yl(phenyl)methanone Derivatives” (Molecules, 2011)

Key:
[1] = molecular target: Protein Tyrosine Kinase (PTK); test: PTK inhibitory activity, ELISA tyrosine kinase assay with poly-Glu-Tyr substrate; assay type: biochemical, rat; conditions: for IC50: tyrosine kinase extracted from rat brain tissue, means of three experiments, NA = not active at 5 μg/mL, read-out: Protein Tyrosine Kinase (PTK) inhibition activity, IC50; for PTK inhibitory activity (in words): in vitro, SAR discussion
Method: The activities of PTKs were tested using ELISA. The tyrosine kinase was extracted from brain tissue of rat, and microtiter plates were coated using poly-Glu-Tyr (PGT) as substrates. If the tyrosine residues of PGT were phosphorylated by PTKs, they bound to phospho-specific monoclonal antibody that was labeled specifically with HRP. The absorbance was measured to reflect the activity of PTK.
The phosphorylation assays were performed at 37 °C in a final volume of 40 µL tyrosine kinase. The concentrations of PTKs used to construct calibration curves were as follows: 600, 500, 400, 300, 200 and 100 × 10^−7 U/mL for PTK. A concentration of 500 × 10^−7/μL was used for each inhibitor. Phosphorylation reactions were initiated with the addition of 40 mM ATP (10 μL) into each vessel, and the plate was incubated at 37 °C for 30 min. After completion of reaction, liquid was decanted and the vessels were washed four times with Tween-PBS. One hundred microliters of blocking solution was added to the vessels and incubated at 37 °C for 30 min. After washing the plate with Tween-PBS, anti-phosphotyrosine (50 μL) was added to the vessels and incubated at 37 °C for 30 min. The reaction liquid was decanted and the remaining solution was removed by rinsing four times with Tween-PBS. One hundred μL of HRP coloring agent was added and incubated at 37 °C for 15 min. The reaction was terminated by addition of 1 N sulfuric acid (100 μL /well). The absorbance of the reaction was measured at 450 nm on a microplate reader.

Compound | melting point | IC50 [1] | PTK inhibitory activity (in words) [1]
COc1ccc(C(=O)c2ccco2)cc1OC [Compound 3a, (3,4-Dimethoxyphenyl)(furan-2-yl)methanone] | 98 to 100 °C |  | 
COc1ccc(C(=O)c2ccco2)c(OC)c1O [Compound 3b, Furan-2-yl(3-hydroxy-2,4-dimethoxyphenyl)methanone] | 168 to 170 °C |  | 
COc1ccc(Br)cc1C(=O)c1ccco1 [Compound 3c, (5-Bromo-2-methoxyphenyl)(furan-2-yl)methanone] | 66 to 70 °C |  | 
COc1ccc(C(=O)c2ccco2)cc1 [Compound 3d, Furan-2-yl(4-methoxyphenyl)methanone] | 58 to 60 °C |  | 
O=C(c1ccc(O)c(O)c1)c1ccco1 [Compound 4a, (3,4-Dihydroxyphenyl)(furan-2-yl)methanone] | 132 to 134 °C | 4.66 µM | 
O=C(c1ccco1)c1ccc(O)c(O)c1O [Compound 4b, Furan-2-yl(2,3,4-trihydroxyphenyl)methanone] |  | 6.42 µM | 
O=C(c1ccco1)c1cc(Br)ccc1O [Compound 4c, (5-Bromo-2-hydroxyphenyl)(furan-2-yl)methanone] | 88 to 90 °C |  | 
COc1ccc(Br)cc1C(=O)c1ccc(Br)o1 [Compound 7b, (5-Bromo-2-methoxyphenyl)(5-bromofuran-2-yl)methanone] | 98 to 100 °C |  | 
O=C(c1ccc(Br)o1)c1ccc(O)c(O)c1O [Compound 8a, (5-Bromofuran-2-yl)(2,3,4-trihydroxyphenyl)methanone] | 132 to 134 °C | 5.31 µM | 
O=C(c1ccc(Br)o1)c1cc(Br)ccc1O [Compound 8b, (5-Bromo-2-hydroxyphenyl)(5-bromofuran-2-yl)methanone] | 82 to 84 °C |  | 
O=C(c1ccc(O)c(O)c1)c1ccc(Br)o1 [Compound 8c, (5-Bromofuran-2-yl)(3,4-dihydroxyphenyl)methanone] |  | 2.72 µM | strongest activity
COc1ccc(C(=O)c2cc(Br)c(Br)o2)cc1O [Compound 13, (4,5-Dibromofuran-2-yl)(3-hydroxy-4-methoxyphenyl)methanone] | 107 to 109 °C |  | 
O=C(c1ccc(O)c(O)c1)c1cc(Br)c(Br)o1 [Compound 14, (4,5-Dibromofuran-2-yl)(3,4-dihydroxyphenyl)methanone] | 184 to 186 °C |  | no activity

The next lines start with the values.

melting point | IC50 [1] | PTK inhibitory activity (in words) [1] | Compound
64 to 66 °C |  |  | COc1cccc(OC)c1C(=O)c1ccco1 [Compound 17b, (2,6-Dimethoxyphenyl)(furan-2-yl)methanone]
64 to 66 °C | 13.2 µM |  | O=C(c1ccco1)c1cccc(O)c1O [Compound 18a, (2,3-Dihydroxyphenyl)(furan-2-yl)methanone]
66 to 68 °C | 12.7 µM |  | O=C(c1ccco1)c1c(O)cccc1O [Compound 18b, (2,6-Dihydroxyphenyl)(furan-2-yl)methanone]
96 to 98 °C |  |  | COc1c(Br)c(C(=O)c2ccco2)c(Br)c(OC)c1OC [Compound 21b, (2,6-Dibromo-3,4,5-trimethoxyphenyl)(furan-2-yl)methanone]
80 to 82 °C |  |  | COc1cc(C(=O)c2ccco2)c(Cl)c(OC)c1OC [Compound 21c, (2-Chloro-3,4,5-trimethoxyphenyl)(furan-2-yl)methanone]
102 to 104 °C |  |  | COc1c(O)c(C(=O)c2ccco2)cc(Br)c1Br [Compound 21d, (4,5-Dibromo-2-hydroxy-3-methoxyphenyl)(furan-2-yl)methanone]
100 to 102 °C |  |  | O=C(c1ccc(O)c(Br)c1)c1ccco1 [Compound 22a, (3-Bromo-4-hydroxyphenyl)(furan-2-yl)methanone]
148 to 150 °C |  | no activity | O=C(c1ccco1)c1c(Br)c(O)c(O)c(O)c1Br [Compound 22b, (2,6-Dibromo-3,4,5-trihydroxyphenyl)(furan-2-yl)methanone]
150 to 152 °C | 4.62 µM |  | O=C(c1ccco1)c1cc(O)c(O)c(O)c1Cl [Compound 22c, (2-Chloro-3,4,5-trihydroxyphenyl)(furan-2-yl)methanone]
138 to 140 °C | 9.56 µM |  | O=C(c1ccco1)c1cc(Br)c(Br)c(O)c1O [Compound 22d, (4,5-Dibromo-2,3-dihydroxyphenyl)(furan-2-yl)methanone]
